Reference: patent US5747447A, “Stable polypeptide composition” (COR Therapeutics, priority 1995, dated 1998)
Read-outs that look alike come from different tables or passages of the source. Where a SMILES comes first, the peptide text is derived from it. Bridges are numbered along the chain shown (N, C = ends). [ ]: non-standard residue; d: D form. hArg = N=C(N)NCCCC[C@H](N)C(=O)O; Mpa = O=C(O)CCS

What was measured:
[1] = Stability of polypeptide I in citrate buffer, HPLC and visual (Example 1); format: physicochemical; settings: citrate buffer pH 5.00 and 5.50 versus pH 6.0
Method: Citrate buffer solution is prepared by mixing citric acid in a volumetric flask to give a final citrate concentration of 25 mM with Nanopure water and adding NaOH to adjust the pH.
One ml aliquots of the above solution of polypeptide in citrate buffer were sealed in borosilicate glass ampules under sterile conditions and stored at a constant temperature. Test sample ampules from each pH and temperature condition 4° C., 50° C. and 70° C. were removed periodically, visually assessed and then analyzed separately by HPLC using a mobile phase comprising acetonitrile (MeCN) and 0.1% trifluoroacetic (TFA) in water. This stability was evaluated by conventional assay methods applicable to purity, weight or size of polypeptides. These included not only visual evaluations, such as discoloration, transparency and precipitation, and included assays normally applied to separate polypeptides from each other and from other materials by reversed phase high performance liquid chromatography (HPLC).
Results of these experiments are set forth in Table 1 in which the stability is expressed in terms of the percentage of main peak of original polypeptide found in the sample analyzed by HPLC. The composition was also found to be normal on visual evaluation.

[2] = Method: 20 ml aliquots of the above solution were placed into Type I glass vials and sealed with rubber stoppers and aluminum closures under sterile conditions and stored at a constant temperature. Test sample vials from each temperature condition, -15° C., 5° C., 30° C. and 45° C. were removed periodically and individually assessed and analyzed for stability by HPLC and visual evaluation as described in Example 1.
[3] = biological target: ADP-induced human platelet aggregation (Homo sapiens, UniProt P05106+P08514); assay: standard aggregation inhibition assay (ADP-induced human platelet aggregation); format: cell-based; settings: for IC50: ADP-induced human platelet aggregation, read-out: Appr, IC50
Chain of ADP-induced human platelet aggregation (P08514 32-1039): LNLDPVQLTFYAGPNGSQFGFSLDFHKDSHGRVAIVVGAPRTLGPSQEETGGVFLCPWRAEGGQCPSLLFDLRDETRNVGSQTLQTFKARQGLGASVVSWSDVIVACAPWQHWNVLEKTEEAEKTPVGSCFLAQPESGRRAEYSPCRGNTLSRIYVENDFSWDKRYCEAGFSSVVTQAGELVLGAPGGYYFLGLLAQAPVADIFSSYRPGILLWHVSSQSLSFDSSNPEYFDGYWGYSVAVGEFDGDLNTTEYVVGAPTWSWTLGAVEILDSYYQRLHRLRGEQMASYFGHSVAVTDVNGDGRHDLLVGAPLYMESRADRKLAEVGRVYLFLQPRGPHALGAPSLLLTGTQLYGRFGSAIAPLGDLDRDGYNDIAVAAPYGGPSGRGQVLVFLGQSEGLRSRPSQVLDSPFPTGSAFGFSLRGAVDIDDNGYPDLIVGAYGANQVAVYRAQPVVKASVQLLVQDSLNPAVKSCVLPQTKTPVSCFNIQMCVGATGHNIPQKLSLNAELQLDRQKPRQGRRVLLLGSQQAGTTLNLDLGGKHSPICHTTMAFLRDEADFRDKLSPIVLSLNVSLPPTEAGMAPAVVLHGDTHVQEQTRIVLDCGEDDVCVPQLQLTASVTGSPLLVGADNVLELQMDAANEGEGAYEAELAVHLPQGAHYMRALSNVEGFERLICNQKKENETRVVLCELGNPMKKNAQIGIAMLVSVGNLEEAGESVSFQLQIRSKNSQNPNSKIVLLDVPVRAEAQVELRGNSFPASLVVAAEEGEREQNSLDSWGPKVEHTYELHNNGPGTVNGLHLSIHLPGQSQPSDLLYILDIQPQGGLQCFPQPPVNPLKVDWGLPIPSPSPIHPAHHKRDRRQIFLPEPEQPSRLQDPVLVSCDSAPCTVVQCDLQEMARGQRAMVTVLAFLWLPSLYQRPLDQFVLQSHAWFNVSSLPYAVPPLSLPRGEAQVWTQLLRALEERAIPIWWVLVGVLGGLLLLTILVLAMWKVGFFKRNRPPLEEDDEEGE
Chain of ADP-induced human platelet aggregation (P05106 27-788): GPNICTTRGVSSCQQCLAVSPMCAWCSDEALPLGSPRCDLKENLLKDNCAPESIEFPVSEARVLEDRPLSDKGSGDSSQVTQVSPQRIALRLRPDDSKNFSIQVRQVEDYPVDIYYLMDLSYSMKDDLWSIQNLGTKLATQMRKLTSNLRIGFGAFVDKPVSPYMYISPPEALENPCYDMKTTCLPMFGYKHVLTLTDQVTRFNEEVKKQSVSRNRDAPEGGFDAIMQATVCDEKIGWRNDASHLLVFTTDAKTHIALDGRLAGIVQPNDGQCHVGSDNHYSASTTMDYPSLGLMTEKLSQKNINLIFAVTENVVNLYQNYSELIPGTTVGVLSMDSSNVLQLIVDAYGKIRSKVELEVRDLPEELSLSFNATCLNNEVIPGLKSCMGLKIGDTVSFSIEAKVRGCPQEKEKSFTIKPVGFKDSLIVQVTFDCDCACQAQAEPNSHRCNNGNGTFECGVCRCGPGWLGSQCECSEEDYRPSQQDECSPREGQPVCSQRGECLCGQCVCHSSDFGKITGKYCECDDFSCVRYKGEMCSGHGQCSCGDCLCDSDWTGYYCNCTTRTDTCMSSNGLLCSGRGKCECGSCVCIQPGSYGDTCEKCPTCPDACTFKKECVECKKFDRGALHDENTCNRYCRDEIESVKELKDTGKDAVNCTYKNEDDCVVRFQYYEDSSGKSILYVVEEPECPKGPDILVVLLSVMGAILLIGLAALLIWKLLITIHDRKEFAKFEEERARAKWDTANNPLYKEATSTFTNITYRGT
Excerpt: 2. Standard assays directly applied to platelet aggregation, such as those described by Gann, Z.-R., et al., J Biol Chem (1988) 263:19827-19832; Huang, T. F., et al., J Biol Chem (1987) 262:16157-16163; Biochemistry (1989) 28:661-666, cited above and incorporated herein by reference;

GP IIb-IIIa = biological target: T1, GP IIb-IIIa (Homo sapiens, UniProt P05106+P08514); format: binding; settings: plate assays
T1 construct: GP IIb-IIIa, prepared in purified form; from tissue; own knowledge of the cited Fitzgerald et al. 1985 method
T1 sequence (P08514 32-887 limits assumed): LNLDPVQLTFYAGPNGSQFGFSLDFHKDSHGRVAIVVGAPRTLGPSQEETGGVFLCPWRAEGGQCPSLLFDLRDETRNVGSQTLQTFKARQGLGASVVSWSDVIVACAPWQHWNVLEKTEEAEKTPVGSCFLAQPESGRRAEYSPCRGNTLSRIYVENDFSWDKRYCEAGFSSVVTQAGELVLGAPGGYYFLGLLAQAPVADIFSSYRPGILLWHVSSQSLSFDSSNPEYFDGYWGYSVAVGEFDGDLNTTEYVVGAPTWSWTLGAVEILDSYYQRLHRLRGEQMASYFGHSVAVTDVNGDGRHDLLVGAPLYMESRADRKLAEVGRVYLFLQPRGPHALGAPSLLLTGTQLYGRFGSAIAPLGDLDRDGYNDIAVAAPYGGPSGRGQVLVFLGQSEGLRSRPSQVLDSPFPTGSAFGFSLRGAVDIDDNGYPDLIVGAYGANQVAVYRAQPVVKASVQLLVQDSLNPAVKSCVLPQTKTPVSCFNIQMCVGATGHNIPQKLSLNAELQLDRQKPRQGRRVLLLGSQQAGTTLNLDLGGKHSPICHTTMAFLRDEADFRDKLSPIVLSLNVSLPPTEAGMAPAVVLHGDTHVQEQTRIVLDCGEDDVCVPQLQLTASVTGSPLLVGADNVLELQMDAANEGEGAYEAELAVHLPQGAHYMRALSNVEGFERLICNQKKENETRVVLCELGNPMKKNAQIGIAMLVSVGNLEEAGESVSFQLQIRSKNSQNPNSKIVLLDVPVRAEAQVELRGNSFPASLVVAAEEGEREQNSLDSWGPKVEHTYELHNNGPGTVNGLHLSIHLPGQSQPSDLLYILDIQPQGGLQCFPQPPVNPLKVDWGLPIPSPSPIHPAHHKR
T1 sequence (P08514 891-1039 limits assumed): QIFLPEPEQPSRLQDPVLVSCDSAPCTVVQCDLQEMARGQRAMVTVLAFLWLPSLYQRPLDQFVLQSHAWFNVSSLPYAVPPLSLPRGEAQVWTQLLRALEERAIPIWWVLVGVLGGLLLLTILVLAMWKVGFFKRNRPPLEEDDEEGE
T1 sequence (P05106 27-788): as the sequence (P05106 27-788) above
Method: In the assay, GP IIb-IIIa, prepared in purified form, for example as described by Fitzgerald, L. A., et al., Anal Biochem (1985) 151:169-177, incorporated herein by reference, is coated onto a solid support such as beads, test tubes, or microtiter plates. The coated support is then contacted with fibrinogen and with the test material and incubated for a sufficient time to permit maximal binding of fibrinogen to the immobilized GP IIb-IIIa. Fibrinogen is typically provided at a concentration of about 5-50 nM and the test material can, if desired, be added at a series of dilutions. Typical incubations are 2-4 hr at 35° C., the time and temperature being interdependent.
After incubation, the solution containing the fibrinogen and test material is removed and the level of binding of fibrinogen measured by quantitating bound fibrinogen to GP IIb-IIIa. Any suitable means of detection can be used, but it is convenient to employ labeled fibrinogen, for example using radioactive, fluorescent or biotinylated labels. Such methods are well known and need not be elaborated here.
Assessment of the results is aided by employing a control sample, usually identical to the test sample except that the test substance is absent. In this case, percent inhibition may be calculated using the basis, so that [formula] Other measures of inhibition effectiveness, such as IC50, can also be used.

[4] = 25 mM citrate buffer pH 5.25, about 1 mg/mL
Excerpt: Test sample vials from each temperature condition were removed periodically and analyzed for stability by HPLC and visual inspection as described in Example 1.

M21 melanoma cells = assay: M21 melanoma cell adhesion to vitronectin-coated plates; format: cell-based
Method: M21 melanoma cells were labelled with ^35 S-methionine, and then added to vitronectin-coated plates in the presence of the indicated concentrations of purified snake venom peptides. Cell attachment was measured by solubilizing the cells remaining after an incubation and wash, as previously describe.

vitronectin receptor = vitronectin receptor (Homo sapiens, UniProt P05106+P06756); assay: plate assay, inhibition of vitronectin binding to vitronectin receptor; settings: at concentrations up to 1 uM
Chain of vitronectin receptor (P06756 31-889 limits assumed): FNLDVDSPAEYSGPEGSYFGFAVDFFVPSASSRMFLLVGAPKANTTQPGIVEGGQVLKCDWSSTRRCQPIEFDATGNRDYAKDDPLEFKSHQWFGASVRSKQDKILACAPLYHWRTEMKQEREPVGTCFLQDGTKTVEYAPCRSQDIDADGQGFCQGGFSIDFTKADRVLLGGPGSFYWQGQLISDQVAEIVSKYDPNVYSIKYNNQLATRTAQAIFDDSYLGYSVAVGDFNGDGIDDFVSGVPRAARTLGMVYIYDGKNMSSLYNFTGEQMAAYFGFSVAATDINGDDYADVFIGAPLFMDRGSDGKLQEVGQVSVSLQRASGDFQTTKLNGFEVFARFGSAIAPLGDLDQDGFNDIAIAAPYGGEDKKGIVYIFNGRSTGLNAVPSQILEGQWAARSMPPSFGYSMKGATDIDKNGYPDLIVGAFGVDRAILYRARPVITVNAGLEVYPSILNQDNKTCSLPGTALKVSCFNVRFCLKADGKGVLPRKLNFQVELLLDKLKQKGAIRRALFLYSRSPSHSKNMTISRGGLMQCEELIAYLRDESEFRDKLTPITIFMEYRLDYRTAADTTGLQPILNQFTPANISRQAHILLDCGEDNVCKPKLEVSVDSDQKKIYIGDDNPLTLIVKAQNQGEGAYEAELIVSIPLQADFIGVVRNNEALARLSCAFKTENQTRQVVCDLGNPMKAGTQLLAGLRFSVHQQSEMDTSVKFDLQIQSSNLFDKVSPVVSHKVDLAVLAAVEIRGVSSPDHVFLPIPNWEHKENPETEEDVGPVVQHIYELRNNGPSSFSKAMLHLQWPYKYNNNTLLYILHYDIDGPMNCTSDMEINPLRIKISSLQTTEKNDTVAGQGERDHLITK
Chain of vitronectin receptor (P06756 891-1048 limits assumed): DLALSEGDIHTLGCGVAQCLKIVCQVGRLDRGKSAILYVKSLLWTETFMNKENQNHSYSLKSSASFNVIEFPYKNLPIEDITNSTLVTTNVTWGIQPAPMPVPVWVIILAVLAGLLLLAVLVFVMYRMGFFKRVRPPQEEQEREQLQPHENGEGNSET
Chain of vitronectin receptor (P05106 27-788): as the sequence (P05106 27-788) above
Excerpt: The PAI assay systems further include characterization of the PAI specificity by binding inhibition assays identical to that above but substituting other adhesive proteins for Fg and other receptors for GP IIb-IIIa. In particular, inhibition of the binding of vitronectin to the vitronectin receptor; fibronectin to the fibronectin receptor; fibronectin to GP IIb-IIIa and fibrinogen and/or vWF to GP IIb-IIIa can be assessed. The adhesive protein and receptors for these assays are available in the art.

N=C(N)NCCCC[C@@H]1NC(=O)CCSSC[C@@H](C(N)=O)NC(=O)[C@@H]2CCCN2C(=O)[C@H](Cc2c[nH]c3ccccc23)NC(=O)[C@H](CC(=O)O)NC(=O)CNC1=O [I, Mpr-L-homoarginine-Gly-Asp-Trp-Pro-Cys-NH2 .cndot.acetate] ([Mpa][hArg]GDWPC-NH2; disulfide 1-7)
stability of liquid solution (in words) [1]: unexpectedly very stable at about 4° C., still stable at up to about 50 °C and much more stable at 70 °C in comparison to citrate buffer solutions at pH 6.0
Peptide Stability in 5.5 pH Citrate Buffer Composition (HPLC as in Example 1) ([2]; 5° C., Time (days) 0): 98.8
Peptide Stability in 5.5 pH Citrate Buffer Composition (HPLC as in Example 1) ([2]; 5° C., Time (days) 76): 98.6
Peptide Stability in 5.5 pH Citrate Buffer Composition (HPLC as in Example 1) ([2]; 5° C., Time (days) 126): 98.5
Peptide Stability in 5.5 pH Citrate Buffer Composition (HPLC as in Example 1) ([2]; 5° C., Time (days) 222): 98.5
Peptide Stability in 5.5 pH Citrate Buffer Composition (HPLC as in Example 1) ([2]; 5° C., Time (days) 301): 98.2
Peptide Stability in 5.5 pH Citrate Buffer Composition (HPLC as in Example 1) ([2]; 5° C., Time (days) 399): 98.2
Peptide Stability in 5.5 pH Citrate Buffer Composition (HPLC as in Example 1) ([2]; 5° C., Time (days) 572): 98.2
Peptide Stability in 5.5 pH Citrate Buffer Composition (HPLC as in Example 1) ([2]; 30° C. after one month at 5° C., Time (days) 45): 97.4
Peptide Stability in 5.5 pH Citrate Buffer Composition (HPLC as in Example 1) ([2]; 30° C. after one month at 5° C., Time (days) 95): 96.4
Peptide Stability in 5.5 pH Citrate Buffer Composition (HPLC as in Example 1) ([2]; 30° C. after one month at 5° C., Time (days) 191): 95.8
Peptide Stability in 5.5 pH Citrate Buffer Composition (HPLC as in Example 1) ([2]; 30° C. after one month at 5° C., Time (days) 270): 95.1
Peptide Stability in 5.5 pH Citrate Buffer Composition (HPLC as in Example 1) ([2]; 30° C. after one month at 5° C., Time (days) 368): 94.5
Peptide Stability in 5.5 pH Citrate Buffer Composition (HPLC as in Example 1) ([2]; 30° C. after one month at 5° C., Time (days) 541): 93.6
Peptide Stability in 5.5 pH Citrate Buffer Composition (HPLC as in Example 1) ([2]; 45° C. after one month at 5° C., Time (days) 45): 96.1
Peptide Stability in 5.5 pH Citrate Buffer Composition (HPLC as in Example 1) ([2]; 45° C. after one month at 5° C., Time (days) 95): 94.1
Peptide Stability in 5.5 pH Citrate Buffer Composition (HPLC as in Example 1) ([2]; 45° C. after one month at 5° C., Time (days) 191): 92.4
Peptide Stability in 5.5 pH Citrate Buffer Composition (HPLC as in Example 1) ([2]; 45° C. after one month at 5° C., Time (days) 270): 89.8
Peptide Stability in 5.5 pH Citrate Buffer Composition (HPLC as in Example 1) ([2]; 45° C. after one month at 5° C., Time (days) 368): 86.5
Peptide Stability in 5.5 pH Citrate Buffer Composition (HPLC as in Example 1) ([2]; 45° C. after one month at 5° C., Time (days) 541): 76.1
Peptide Stability in 5.5 pH Citrate Buffer Composition (HPLC as in Example 1) ([2]; -15° C. after one month at 5° C., Time (days) 45): 98.9
Peptide Stability in 5.5 pH Citrate Buffer Composition (HPLC as in Example 1) ([2]; -15° C. after one month at 5° C., Time (days) 95): 99.0
Peptide Stability in 5.5 pH Citrate Buffer Composition (HPLC as in Example 1) ([2]; -15° C. after one month at 5° C., Time (days) 191): 99.1
Peptide Stability in 5.5 pH Citrate Buffer Composition (HPLC as in Example 1) ([2]; -15° C. after one month at 5° C., Time (days) 270): 98.7
Peptide Stability in 5.5 pH Citrate Buffer Composition (HPLC as in Example 1) ([2]; -15° C. after one month at 5° C., Time (days) 368): 98.6
Peptide Stability in 5.5 pH Citrate Buffer Composition (HPLC as in Example 1) ([2]; -15° C. after one month at 5° C., Time (days) 541): 98.9

C[C@H](NC(=O)[C@@H]1CSSC[C@H](NC(=O)CN)C(=O)N[C@@H](CCCCN)C(=O)NCC(=O)N[C@@H](CC(=O)O)C(=O)N[C@@H](Cc2c[nH]c3ccccc23)C(=O)N2CCC[C@H]2C(=O)N1)C(N)=O [Analog #4, G-C-K-G-D-W-P-C-A-NH2] (H-GCKGDWPCA-NH2; disulfide 2-8)
IC50 [3]: 5 µM
differential fibrinogen/GP IIb-IIIa versus vitronectin/vitronectin receptor (in words) (GP IIb-IIIa): highest differential

C[C@@H]1NC(=O)CCSSC[C@@H](C(N)=O)NC(=O)[C@@H]2CCCN2C(=O)[C@H](Cc2c[nH]c3ccccc23)NC(=O)[C@H](CC(=O)O)NC(=O)CNC(=O)[C@H](CCCCNC(=N)N)NC1=O [PAI 82, Mpr-A-Har-G-D-W-P-C-NH2] ([Mpa]A[hArg]GDWPC-NH2; disulfide 1-8)
stability by HPLC as in Example 1 ([4]; 5° C., Time (Days) 0): 99.6
stability by HPLC as in Example 1 ([4]; 5° C., Time (Days) 29): 98.1
stability by HPLC as in Example 1 ([4]; 5° C., Time (Days) 60): 98.3
stability by HPLC as in Example 1 ([4]; 5° C., Time (Days) 90): 97.3
stability by HPLC as in Example 1 ([4]; 30° C., Time (Days) 29): 97.3
stability by HPLC as in Example 1 ([4]; 30° C., Time (Days) 60): 97.3
stability by HPLC as in Example 1 ([4]; 30° C., Time (Days) 90): 96.5
stability by HPLC as in Example 1 ([4]; 45° C., Time (Days) 29): 95.4
stability by HPLC as in Example 1 ([4]; 45° C., Time (Days) 60): 92.6
stability by HPLC as in Example 1 ([4]; 45° C., Time (Days) 90): 90.6
IC20 ([3]; PAI activity, Example 15, read-out: Appr.IC20): 0.12 µM

C[C@H](NC(=O)[C@@H]1CSSC[C@H](NC(=O)CN)C(=O)NCC(=O)N[C@@H](CCCNC(=N)N)C(=O)NCC(=O)N[C@@H](CC(=O)O)C(=O)N[C@@H](Cc2c[nH]c3ccccc23)C(=O)N2CCC[C@H]2C(=O)N1)C(N)=O [reference compound] (H-GCGRGDWPCA-NH2; disulfide 2-9)
M21 cell attachment to vitronectin (in words) (M21 melanoma cells): potent inhibitors of cell attachment

C[C@H](NC(=O)[C@@H]1CSSC[C@H](NC(=O)CN)C(=O)NCC(=O)N[C@@H](CCCCN)C(=O)NCC(=O)N[C@@H](CC(=O)O)C(=O)N[C@@H](Cc2c[nH]c3ccccc23)C(=O)N2CCC[C@H]2C(=O)N1)C(N)=O [Analog #3, G-C-G-K-G-D-W-P-C-A-NH2]
M21 cell attachment to vitronectin (in words) (M21 melanoma cells): ineffective up to 60 uM

NCCCC[C@@H]1NC(=O)CNC(=O)[C@@H](N)CSSC[C@@H](C(N)=O)NC(=O)[C@@H]2CCCN2C(=O)[C@H](Cc2c[nH]c3ccccc23)NC(=O)[C@H](CC(=O)O)NC(=O)CNC1=O [Analog #5, C-G-K-G-D-W-P-C-NH2] (H-CGKGDWPC-NH2; disulfide 1-8)
IC50 [3]: 5 µM
differential fibrinogen/GP IIb-IIIa versus vitronectin/vitronectin receptor (in words) (GP IIb-IIIa): quite specific

C[C@H](NC(=O)[C@@H]1CSSC[C@H](NC(=O)CN)C(=O)N[C@@H](CCCCN)C(=O)NCC(=O)N[C@@H](CC(=O)O)C(=O)N[C@@H](Cc2c[nH]c3ccccc23)C(=O)N1)C(N)=O [Analog #7, G-C-K-G-D-W-C-A-NH2] (H-GCKGDWCA-NH2; disulfide 2-7 (inferred); N-terminus assumed)
differential fibrinogen/GP IIb-IIIa versus vitronectin/vitronectin receptor (in words) (GP IIb-IIIa): quite specific

[E^28 L^41 C^64 ]barbourin (28-73) [Analog #1]
platelet aggregation inhibition activity (in words) [3]: potent inhibitors of platelet aggregation
affinity for VnR (in words) (vitronectin receptor): relative lack of affinity
M21 cell attachment to vitronectin (in words) (M21 melanoma cells): Neither barbourin nor Peptide 1 (truncated barbourin) had a significant effect
